Results as given in patent US11285128B2, “Homogenous antibody drug conjugates via enzymatic methods” (CSPC Megalith Biopharmaceutical Co., Ltd., priority 2014, dated 2022).

B1: TG_SM: mTgase from S. mobaraensis, purified from Ajinomoto's Activa TI (SEQ ID NO:18) (protein)
chain: DSDDRVTPPAEPLDRMPDPYRPSYGRAETVVNNYIRKWQQVYSHRDGRKQQMTEEQREWLSYGCVGVTWVNSGQYPTNRLAFASFDEDRFKNELKNGRPRSGETRAEFEGRVAKESFDEEKGFQRAREVASVMNRALENAHDESAYLDNLKKELANGNDALRNEDARSPFYSALRNTPSFKERNGGNHDPSRMKAVIYSKHFWSGQDRSSSADKRKYGDPDAFRPAPGTGLVDMSRDRNIPRSPTSPGEGFVNFDYGWFGAQTEADADKTVWTHGNHYHAPNGSLGAMHVYESKFRNWSEGYSDFDRGAYVITFIPKSWNTAPDKVKQGWP

Key:
[1] = test system: SK-BR-3 cells; assay: In vitro cell viability assay (CellTiter Blue) in SK-BR-3 cells; type: cell-based; conditions: Trastuzumab-MMAE conjugates
Experimental: SK-BR-3 cells were seeded in 96 well black clear-bottom plates at 10K cells/well and cultured for 24 hours. Cells were treated for 96 hours with 2 fold serially diluted antibody-drug conjugates in triplicates. Cells viability was determined by […]™ Blue Cell Viability Assay (Promega, Madison, Wis.). Relative cell viability was determined as a percentage of untreated control. IC50 was calculated using a four parameter logistic model from XLfit.

[2] = test system: BT474 cells; assay: BT474 cell-based assay; conditions: Trastuzumab-MMAE conjugates, Table 4
[3] = In vivo stability in blood of NCI N87 xenograft mice (sandwich ELISA, ratio ADC/mAb); conditions: blood samples up to 21 days
Experimental: After ADC administration, blood samples of 20 μl were taken every 1-2 days up to 21 days by poking mouse tails and mixed with 120 μl of storage buffer (PBS with 10 mM EDTA and 0.1 M NH4Cl). Then total trastuzumab and ADC were analyzed by sandwich ELISA. Black NUNC® Maxisorp 96 plates were coated with Her2 protein at 100 ng/well. Samples were further diluted with PBS as needed to suit the linear detection range of 10 pg to 2 ng (for either Trastuzumab or ADC). After applying samples (fresh ADC dilutions were used as both total mAb and ADC standards) and washing, rabbit polyclonal anti-trastuzumab (for total mAb) or anti-MMAE (for total ADC) were applied as secondary antibodies while Goat anti-Rabbit IgG-HRP (Life-technologies) was used as the detection antibody. AMPLEX® Red (Cayman Chemical)/4-Iodophenol (Sigma)/H2O2 mixture was used as fluorescence substrate. Plates were read on SpectraMax GEMINI′ with 555 nm Ex and 585 nm Em.

[4] = molecular target: IgG1 (Homo sapiens, UniProt P01857, D239E/L241M); assay: mTgase-catalysed conjugation of IgG1 with MDC (HPLC); type: biochemical; conditions: high enzyme concentration
IgG1, sequence (P01857 with tags, fused parts or gaps isoform P01857-1 D239E/L241M, other chains not shown): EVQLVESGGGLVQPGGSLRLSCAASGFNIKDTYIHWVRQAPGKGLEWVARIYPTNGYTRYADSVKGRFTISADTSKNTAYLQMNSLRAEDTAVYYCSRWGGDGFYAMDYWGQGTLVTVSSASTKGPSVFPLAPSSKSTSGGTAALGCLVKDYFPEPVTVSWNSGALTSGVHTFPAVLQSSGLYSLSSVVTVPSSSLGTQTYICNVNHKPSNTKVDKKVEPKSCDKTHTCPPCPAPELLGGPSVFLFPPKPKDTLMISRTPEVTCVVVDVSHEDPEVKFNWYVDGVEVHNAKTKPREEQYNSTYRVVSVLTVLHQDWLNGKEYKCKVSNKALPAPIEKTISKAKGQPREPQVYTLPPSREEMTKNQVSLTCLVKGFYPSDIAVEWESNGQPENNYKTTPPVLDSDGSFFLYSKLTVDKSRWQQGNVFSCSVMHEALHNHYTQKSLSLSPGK
Experimental: MDC was chosen for this experiment because it has a primary amine and its fluorescence can be easily monitored. […] To purified IgG1 (1-10 mg/ml) in Tris-buffer (pH 6.5-8.5), add MDC (Sigma-Aldrich) in DMSO to final concentrations of 1-5 mM (final DMSO 2-10%). Add purified wildtype TG_SL or its mutant to a final concentration of 0.05-1.0 mg/ml. Incubate the reaction mixtures at 37° C. Reaction was followed by HPLC using phenyl hydrophobic interaction column (PHIC, Tosoh Bioscience LLC). At the beginning of the reaction, the product was dominated by DAR1, where only one heavy chain of IgG1 was coupled with MDC. As the reaction progressed, DAR 2, where both heavy chains of IgG1 are coupled with MDC, became the major product. Toward the end of reaction (8 hours at 0.2 mg/ml of mTgase at pH 7), conjugation yield reached 80% for DAR2 with 20% of DAR 1 left, or 90% for heavy chain (HC) when the sample was reduced by 10 mM TCEP and analyzed on C4-1000A column (Vydac) (see FIG. 6). The selective conjugation of MDC to HC was visualized on SDS PAGE (FIG. 7). Other mTgases, such as TG_SM from S. mobaraensis (purified from Ajinomoto's Activa TI), was also tested.

Row | Molecule | IC50 [1] [nM] | IC50 [2] [nM] | stability in blood (ratio of ADC/mAb vs time) [3] | activity comparing to TG_SL [4]
1 | PEG4 | 0.061 | 0.273 | – | –
2 | PEG8 | 0.042 | 0.23 | – | –
3 | PEG12 | 0.038 | 0.267 | completely stable in blood | –
4 | PEG6 | 0.05 | 0.234 | – | –
5 | B1 | – | – | – | about 30%
